Experiment [1] addresses T1, Glycylpeptide N-tetradecanoyltransferase 1 (Homo sapiens, UniProt P30419).
T1 sequence (P30419 whole entry): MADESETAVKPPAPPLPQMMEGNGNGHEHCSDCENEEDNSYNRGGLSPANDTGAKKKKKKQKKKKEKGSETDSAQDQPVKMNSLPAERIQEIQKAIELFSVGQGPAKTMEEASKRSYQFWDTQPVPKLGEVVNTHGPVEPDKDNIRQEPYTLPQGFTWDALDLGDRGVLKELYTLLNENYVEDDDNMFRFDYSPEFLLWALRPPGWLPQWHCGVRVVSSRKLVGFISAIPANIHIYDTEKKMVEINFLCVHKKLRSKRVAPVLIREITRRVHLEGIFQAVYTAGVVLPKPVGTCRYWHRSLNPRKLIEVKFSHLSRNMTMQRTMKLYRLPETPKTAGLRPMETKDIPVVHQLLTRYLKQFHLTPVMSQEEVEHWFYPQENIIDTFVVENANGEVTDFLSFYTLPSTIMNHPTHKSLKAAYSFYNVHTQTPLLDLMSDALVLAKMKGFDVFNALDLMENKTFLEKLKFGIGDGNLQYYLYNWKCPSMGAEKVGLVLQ
Kind of experiment: Inhibition of recombinant human NMT.

Experiment [2] has as its target T2, Glycylpeptide N-tetradecanoyltransferase (Plasmodium vivax (strain Salvador I), UniProt A5K1A2).
T2 sequence (A5K1A2 whole entry): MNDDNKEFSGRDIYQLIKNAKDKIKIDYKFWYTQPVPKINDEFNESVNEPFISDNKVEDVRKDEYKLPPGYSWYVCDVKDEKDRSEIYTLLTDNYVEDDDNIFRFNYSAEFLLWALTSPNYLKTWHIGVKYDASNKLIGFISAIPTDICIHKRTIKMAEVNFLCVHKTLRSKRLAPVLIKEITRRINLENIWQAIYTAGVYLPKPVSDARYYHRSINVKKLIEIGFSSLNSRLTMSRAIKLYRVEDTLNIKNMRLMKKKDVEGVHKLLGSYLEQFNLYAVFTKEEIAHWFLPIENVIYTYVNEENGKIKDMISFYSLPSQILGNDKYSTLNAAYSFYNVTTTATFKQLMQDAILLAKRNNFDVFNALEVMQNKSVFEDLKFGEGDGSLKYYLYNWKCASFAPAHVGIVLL
As to the kind of experiment: Inhibition of recombinant Plasmodium vivax NMT.

In experiment [3] the target is T3, Glycylpeptide N-tetradecanoyltransferase (Plasmodium falciparum, UniProt Q9U419).
T3 sequence (Q9U419 whole entry): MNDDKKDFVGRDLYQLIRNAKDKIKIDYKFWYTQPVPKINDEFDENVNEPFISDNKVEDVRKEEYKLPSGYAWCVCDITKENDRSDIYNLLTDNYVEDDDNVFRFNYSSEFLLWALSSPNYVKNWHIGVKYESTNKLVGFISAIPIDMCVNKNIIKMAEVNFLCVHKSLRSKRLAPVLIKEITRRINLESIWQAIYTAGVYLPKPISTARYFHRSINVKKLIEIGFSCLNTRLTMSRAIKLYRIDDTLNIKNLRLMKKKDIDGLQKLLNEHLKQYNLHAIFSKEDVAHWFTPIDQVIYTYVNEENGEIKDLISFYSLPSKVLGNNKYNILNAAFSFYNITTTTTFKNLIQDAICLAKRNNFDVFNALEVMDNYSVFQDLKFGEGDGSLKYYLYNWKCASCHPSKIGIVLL
As to the kind of experiment: Inhibition of recombinant Plasmodium falciparum NMT.

A short description of experiment [4]: Inhibition of full length Caenorhabditis elegans NMT expressed in Escherichia coli incubated for 10 mins by liquid scintillation analysis.
The nature of experiment [5]: Inhibition of full length Brugia malayi NMT expressed in Escherichia coli incubated for 10 mins by liquid scintillation analysis.
The target in experiment [6] is T2, Glycylpeptide N-tetradecanoyltransferase. As to the kind of experiment: Binding affinity to Plasmodium vivax NMT assessed as inhibition constant using YnMyr-CoA as substrate.
Experiment [7] deals with T3, Glycylpeptide N-tetradecanoyltransferase. As to the kind of experiment: Binding affinity to Plasmodium falciparum NMT assessed as inhibition constant using GSNKSKPKDASQRRR-NH2 as peptide substrate.
Experiment [8] is described as follows: Inhibition of recombinant Leishmania donovani NMT.

As usually defined, the IC50 is the concentration that inhibits the measured activity by half. For the molecule `NCCCCCCCCCC(=O)N[C@@H](CO)C(=O)N[C@@H](CCCCN)C(=O)NCCC1CCCCC1`, the IC50 in experiment [1] came to 0.06 µM; in experiment [2] it was 0.68 µM; in experiment [3], 24.3 µM.

Turning to `Cc1nn(C)c(CC(C)C)c1NS(=O)(=O)c1c(Cl)cc(-c2cccc(C(C)(C)N)c2)cc1Cl`, the values for the IC50 in experiment [4] and in experiment [5] were 0.01 µM and 2 µM, respectively.

The term Ki denotes a measure of affinity in units of concentration, obtained from inhibition or displacement. On to `Cc1nn(C)c(C)c1Cc1nnc(-c2sc3ccccc3c2NC2CCNCC2)o1`, for which the Ki in experiment [6] amounted to 0.0027 µM; in experiment [7] it was 0.008 µM.

`CCOC(=O)c1cnc2ccc(OCc3ccc(N4CCNCC4)nc3)cc2c1SCCC#N`: the 50% inhibitory concentration (IC50) in experiment [8] turned out to be 0.024 µM.
